According to publication PMC8537901, “Progesterone Metabolism by Human and Rat Hepatic and Intestinal Tissue” (Pharmaceutics, 2021):

Legend:
[1] = Human cytosol stability assay, liver cytosol; settings: for effect of inhibitor on rate of progesterone depletion: presence of NADPH, inhibitor 100 µM; for half-life at 1 µM: human, t1/2 (min)
Experimental: (§3) Progesterone stability was assessed in intestinal and liver cytosol in the presence or absence of NADPH cofactor and specific enzyme inhibitors. For both intestinal and liver cytosol, the protein concentration was adjusted to 0.5 mg/mL. Both human liver and intestinal cytosol (with 0.1 mM EDTA) were then pre-incubated for 10 min in a thermomixer comfort by Eppendorf in an RNAse/DNAse 96-well plate until reaching a temperature of 37 °C. Next, a final concentration of 100 µM of enzyme inhibitors were added to the cytosol. […] The enzyme inhibitors used during this study were: Epalrestat (AKR1B1 inhibitor), Diazepam (AKR1C inhibitor), Finasteride (AKR1D1 inhibitor), Diazepam + Flufenamic Acid (AKR1C inhibitor cocktail), Menadione (aldehyde oxidase inhibitor) and Allopurinol (xanthine oxidase inhibitor).
(§4) Next, the mixtures were incubated for an additional 5 min, and NADPH was added at a final concentration of 1 mM. Finally, progesterone (1 µM) was added and mixed by pipetting to initiate the reaction. Immediately following reaction initiation, a 50 µL sample was taken. The sample was then diluted in 100 µL of acetonitrile to terminate enzymatic reaction. Samples were centrifuged at 4 °C and 2500 rpm for 30 min. Following centrifugation, the supernatant was removed and diluted 1:1 with milli-Q water. […] This process was followed for sampling at all required time intervals.
(§5) Liquid chromatography with tandem mass spectrometry (LC MS/MS) was used to analyse samples obtained from both cytosol and homogenate stability assays (see Appendix A Figure A1 for example spectra). […] The column used was Aquity HSS T3 (1.8 µm) 2.1 × 50 mm (Water Ltd., Herts, UK), and the samples were run with an injection volume of 8 µL at 70 °C. A solvent system and gradient with a flow rate of 600 µL/minute was used to perform this analysis. The mobile phase consisted of 10 mM ammonium formate with 0.1% v/v formic acid in water (A) and acetonitrile (B).
(§6) The percent of substrate present at each timepoint relative to the 0 min sample was calculated from the LC-MS/MS peak area ratios (compound peak area/internal standard peak area). […] The Kolmogorov–Smirnov test was used to assess normality followed by Student’s t-test. Results were considered statistically significant when p < 0.05.

[2] = Tissue homogenate stability assay, human liver homogenate; type: in vitro ADME; settings: for half-life: human, liver homogenate
Experimental: (§1) Progesterone stability was determined in rat and human intestinal mucosa and liver homogenates. In addition, progesterone was incubated in stock solution containing phosphate-buffered saline, 0.1% Tween80 and 1% DMSO. […] Stability assays were carried out either in the presence or absence of 1mM of the cofactor NADPH. The physiological concentration of NADPH was approximately 100 µM [26]. However, for the purpose of this research, a concentration of 1 mM was used to ensure an excess of co-factor was available and not rate-limited throughout the incubation period.
(§2) The protein concentration for the rat and human liver and intestinal homogenates was adjusted to 5 mg/mL. […] A final concentration of 1 µM progesterone and 1 mM NADPH (where required) was added to the homogenate, and samples were immediately taken (t–0). Next, the homogenate solution was incubated with shaking (700 rpm) at 37 °C, and further samples were taken at timed intervals. To stop the enzymatic reaction, samples were immediately diluted in ice-cold acetonitrile at a ratio of 1:3 sample:acetonitrile. The samples were then centrifuged at 3000 rpm for 30 min to pellet the homogenates.

[3] = Tissue homogenate stability assay, rat liver homogenate; type: in vitro ADME; settings: for half-life: Sprague Dawley, rat
Experimental: as §1, §2

[4] = Tissue homogenate stability assay, human intestinal homogenate; type: in vitro ADME; settings: for half-life: human
Experimental: as §1, §2

[5] = Tissue homogenate stability assay, rat intestinal homogenate; type: in vitro ADME; settings: for half-life: Sprague Dawley, rat
Experimental: as §1, §2

[6] = Stability in control media (phosphate-buffered saline, 0.1% Tween80, 1% DMSO, pH 7.4); type: physicochemical
Experimental: as §1

[7] = Human cytosol stability assay, intestinal cytosol; settings: for half-life at 1 µM: human, human intestinal cytosol, t1/2 (min)
Experimental: as §3, §4, §5, §6

[8] = human liver homogenate, no NADPH
[9] = rat liver homogenate + 1 mM NADPH
[10] = human intestinal homogenate + 1 mM NADPH
[11] = human intestinal homogenate, no NADPH
[12] = rat intestinal homogenate + 1 mM NADPH
[13] = human liver cytosol + NADPH + AKR1B1 inhibitor (Epalrestat 100 µM)
[14] = human liver cytosol + NADPH + AKR1C1 cocktail (Diazepam + Flufenamic Acid)
[15] = human liver cytosol + NADPH, no inhibitor
[16] = human intestinal cytosol + NADPH + AKR1B inhibitor (Epalrestat 100 µM)
[17] = human intestinal cytosol + NADPH, no inhibitor

Compound: CN1C(=O)CN=C(c2ccccc2)c2cc(Cl)ccc21 [diazepam, Diazepam]
- effect of inhibitor on rate of progesterone depletion ([1]; human liver cytosol): no significant difference

Compound: CC1=CC(=O)c2ccccc2C1=O [Menadione]
- effect of inhibitor on rate of progesterone depletion ([1]; human liver cytosol): not deemed significant

Compound: CC(=O)[C@H]1CC[C@H]2[C@@H]3CCC4=CC(=O)CC[C@]4(C)[C@H]3CC[C@]12C [Progesterone]
- % Drug Remaining After 60 min ([2]; human liver homogenate + 1 mM NADPH): 0.27 ± 0.26%
- % of original concentration remaining ([2]; human liver homogenate + NADPH, within 10 min of incubation): less than 2%
- % of the drug remaining ([2]; human liver homogenate, absence of NADPH, after two hours of incubation): over 40%
- % Drug Remaining After 60 min [2, 8]: 43.32 ± 4.84%
- half-life ([2]; human liver homogenate + 1 mM NADPH, 1 µM progesterone, 5 mg/mL protein, 37 °C): 0.045 ± 0.000833 h
- half-life [2, 8]: 0.649 ± 0.195 h
- half-life ([3]; liver homogenate, pH 7.4, rat liver homogenate, no NADPH): 0.663 ± 0.169 h
- half-life ([3]; rat liver homogenate, pH 7.4, rat liver homogenate + 1 mM NADPH): 0.045 h
- t1/2 [3, 9]: 2.72 ± 0.05 min
- % Drug Remaining After 60 min [3, 9]: 0.03 ± 0.0005%
- % of original concentration remaining ([3]; rat liver homogenate + NADPH, within 10 min of incubation): less than 2%
- % of the drug remaining ([3]; rat liver homogenate, absence of NADPH, after two hours of incubation): over 40%
- % Drug Remaining After 60 min ([3]; rat liver homogenate, no NADPH): 46.04 ± 0.69%
- t1/2 [4, 10]: 2.6203 ± 0.4568 h
- % Drug Remaining After 60 min [4, 10]: 73.92 ± 5.11%
- % Drug Remaining After 60 min ([4]; human intestinal homogenate + 1 mM NADPH, listed as progesterone): 74%
- % Drug Remaining After 60 min [4, 11]: 75.82 ± 9.35%
- % Drug Remaining After 60 min ([4]; human intestinal homogenate, no NADPH, listed as progesterone): 76%
- half-life ([4]; human intestinal homogenate, human intestinal homogenate + 1 mM NADPH): 2.62 h
- half-life [4, 11]: 2.6 ± 0.229 h
- half-life ([5]; rat intestinal homogenate, pH 7.4, rat intestinal homogenate + 1 mM NADPH): 3.29 h
- half-life ([5]; rat intestinal homogenate, pH 7.4, rat intestinal homogenate, no NADPH): 5.87 ± 0.614 h
- t1/2 [5, 12]: 3.2938 ± 0.0485 h
- % Drug Remaining After 60 min [5, 12]: 76.67 ± 4.72%
- % Drug Remaining After 60 min ([5]; rat intestinal homogenate + 1 mM NADPH, listed as progesterone): 77%
- % Drug Remaining After 60 min ([5]; rat intestinal homogenate, no NADPH): 90.93 ± 2.19%
- % Drug Remaining After 60 min ([5]; rat intestinal homogenate, no NADPH, listed as progesterone): over 90%
- % detectable in control media ([6]; after 2 h in control media): 99%
- time stable in stock solution ([6]; phosphate-buffered saline, 0.1% Tween80, 1% DMSO, pH 7.4, 1 µM): up to 6 h
- t1/2 [1, 13]: 0.3135 ± 0.016 h
- % Drug Remaining After 60 min [1, 13]: 6.6 ± 6.24%
- t1/2 [1, 14]: 0.5927 ± 0.111 h
- % Drug Remaining After 60 min [1, 14]: 33.5 ± 1.72%
- % Drug Remaining After 60 min ([1]; human liver cytosol + NADPH + AKR1C1 inhibitor (Diazepam 100 µM)): 0.11 ± 0.04%
- % Drug Remaining After 60 min ([1]; human liver cytosol + NADPH + AKR1D1 inhibitor (Finasteride 100 µM)): 7.85 ± 6.31%
- % Drug Remaining After 60 min ([1]; human liver cytosol + NADPH + AOX inhibitor (Menadione 100 µM)): 0.97 ± 0.88%
- t1/2 [1, 15]: 0.2288 ± 0.0135 h
- % Drug Remaining After 60 min [1, 15]: 0.04 ± 0.01%
- % Drug Remaining After 60 min ([1]; human liver cytosol, absence of NADPH, + AOX inhibitor (Menadione 100 µM)): 69.14 ± 2.91%
- % Drug Remaining After 60 min ([1]; human liver cytosol, absence of NADPH, + XAO inhibitor (Allopurinol 100 µM)): 57.09 ± 2.01%
- half-life at 1 µM ([1]; human liver cytosol, human liver cytosol + NADPH + AKR1C1 cocktail (Diazepam + Flufenamic Acid)): 0.593 h
- half-life at 1 µM ([1]; human liver cytosol, human liver cytosol + NADPH, no inhibitor): 0.217 h
- half-life at 1 µM ([1]; human liver cytosol, liver cytosol section (Figure 4), absence of NADPH, no inhibitor, line printed as Human intestinal Cytosol): 1.72 ± 0.156 h
- half-life at 1 µM ([1]; human liver cytosol, with Allopurinol (xanthine oxidase inhibitor), 100 µM, human liver cytosol, absence of NADPH, + XAO inhibitor (Allopurinol 100 µM)): 1.66 ± 0.152 h
- half-life at 1 µM ([1]; human liver cytosol, with Diazepam (AKR1C1 inhibitor), 100 µM, human liver cytosol + NADPH + AKR1C1 inhibitor (Diazepam 100 µM)): 0.235 ± 0.004 h
- half-life at 1 µM ([1]; human liver cytosol, with Epalrestat (AKR1B1 inhibitor), 100 µM, human liver cytosol + NADPH + AKR1B1 inhibitor (Epalrestat 100 µM)): 0.3 h
- half-life at 1 µM ([1]; human liver cytosol, with Finasteride (AKR1D1 inhibitor), 100 µM, human liver cytosol + NADPH + AKR1D1 inhibitor (Finasteride 100 µM)): 0.308 ± 0.0283 h
- half-life at 1 µM ([1]; human liver cytosol, with Menadione (aldehyde oxidase inhibitor), 100 µM, human liver cytosol, absence of NADPH, + AOX inhibitor (Menadione 100 µM)): 2.21 ± 0.0782 h
- half-life at 1 µM ([1]; liver cytosol, with Menadione 100 µM (aldehyde oxidase inhibitor), human liver cytosol + NADPH + AOX inhibitor (Menadione 100 µM)): 0.258 ± 0.0338 h
- % Drug Remaining After 60 min ([1]; liver cytosol section (Figure 4), absence of NADPH, no inhibitor, line printed as Human intestinal Cytosol): 56.6 ± 2.07%
- t1/2 [7, 16]: 3.0687 ± 0.3158 h
- % Drug Remaining After 60 min [7, 16]: 80.87 ± 7.84%
- % Drug Remaining After 60 min ([7]; human intestinal cytosol + NADPH + AKR1C1 inhibitor (Diazepam 100 µM)): 77.38 ± 6.37%
- % Drug Remaining After 60 min ([7]; human intestinal cytosol + NADPH + AKR1C cocktail (Diazepam + Flufenamic Acid)): 73.56 ± 3.69%
- % Drug Remaining After 60 min ([7]; human intestinal cytosol + NADPH + AKR1D1 inhibitor (Finasteride 100 µM)): 79.56 ± 4.44%
- t1/2 [7, 17]: 2.1587 ± 0.0458 h
- % Drug Remaining After 60 min [7, 17]: 72.51 ± 6.48%
- half-life at 1 µM [7, 17]: 2.16 h
- half-life at 1 µM ([7]; with Epalrestat (AKR1B inhibitor), 100 µM, human intestinal cytosol + NADPH + AKR1B inhibitor (Epalrestat 100 µM)): 3.07 h
- half-life at 1 µM ([7]; with Finasteride (AKR1D1 inhibitor), 100 µM, human intestinal cytosol + NADPH + AKR1D1 inhibitor (Finasteride 100 µM)): 3.03 ± 0.0732 h
